Measurements as given in PubChem BioAssay AID1963856 (Molecular Pharmacology Branch, DTP, NCI, 2024).

Test system: LG0567-F671-PDC KRAS tumor spheroid viability
Test: Anticancer human tumor LG0567-F671-PDC patient-derived lung adenocarcinoma cell line growth inhibition [KRAS2]
Settings: spheroids with HUVEC and MSC; for IC50: curve of first compound; for viability, T/C: stronger effect = lower value
Outline: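 Combination screen of spheroid viability in tumor-cell co-cultures with endothelial (HUVEC) and mesenchymal stem cell stroma. Each agent was tested in half-log dilutions, topping at clinical Cmax or at 10 microM without a known Cmax.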

[1] = second compound 0.1 µM, first compound 0.0316 µM
[2] = second compound 0.1 µM, first compound 0.1 µM
[3] = second compound 0.1 µM, first compound 0.316 µM
[4] = second compound 0.1 µM, first compound 1 µM
[5] = second compound 0.1 µM, first compound 3.16 µM
[6] = second compound 0.1 µM, first compound 10 µM
[7] = second compound 0.316 µM, first compound 0.0316 µM
[8] = second compound 0.316 µM, first compound 0.1 µM
[9] = second compound 0.316 µM, first compound 0.316 µM
[10] = second compound 0.316 µM, first compound 1 µM
[11] = second compound 0.316 µM, first compound 3.16 µM
[12] = second compound 0.316 µM, first compound 10 µM
[13] = second compound 1 µM, first compound 0.0316 µM
[14] = second compound 1 µM, first compound 0.1 µM
[15] = second compound 1 µM, first compound 0.316 µM
[16] = second compound 1 µM, first compound 1 µM
[17] = second compound 1 µM, first compound 3.16 µM
[18] = second compound 1 µM, first compound 10 µM
[19] = second compound 3.16 µM, first compound 0.0316 µM
[20] = second compound 3.16 µM, first compound 0.1 µM
[21] = second compound 3.16 µM, first compound 0.316 µM
[22] = second compound 3.16 µM, first compound 1 µM
[23] = second compound 3.16 µM, first compound 3.16 µM
[24] = second compound 3.16 µM, first compound 10 µM
[25] = second compound 10 µM, first compound 0.0316 µM
[26] = second compound 10 µM, first compound 0.1 µM
[27] = second compound 10 µM, first compound 0.316 µM
[28] = second compound 10 µM, first compound 1 µM
[29] = second compound 10 µM, first compound 3.16 µM
[30] = second compound 10 µM, first compound 10 µM
[31] = second compound 0.1 µM, first compound 0.01 µM
[32] = second compound 0.316 µM, first compound 0.01 µM
[33] = second compound 1 µM, first compound 0.01 µM
[34] = second compound 3.16 µM, first compound 0.01 µM
[35] = second compound 10 µM, first compound 0.01 µM
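Further: drug exposure lasted seven days after spheroids formed for three days.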
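Wherever viability, T/C is given: 100% = DMSO vehicle control viability.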

Row | Compound | IC50 (second compound 0.1 µM) | IC50 (second compound 0.316 µM) | IC50 (second compound 1 µM) | IC50 (second compound 3.16 µM) | IC50 (second compound 10 µM) | viability, T/C [1] | viability, T/C [2] | viability, T/C [3] | viability, T/C [4] | viability, T/C [5] | viability, T/C [7] | viability, T/C [8] | viability, T/C [9] | viability, T/C [10] | viability, T/C [13] | viability, T/C [14] | viability, T/C [19] | viability, T/C [20] | viability, T/C [25] | viability, T/C [26] | further results
1 | CC1OCC2(CCN(c3cnc(Sc4ccnc(N)c4Cl)c(N)n3)CC2)C1N (stereo not given) + CNCc1ccccc1-c1csc(C(C)Nc2nc(C)nc3cc(OC)c(OC)cc23)c1 | 68.1 nM | 53.3 nM | 75 nM | 221 nM | < 31.6 nM | 60.4% | 44.5% | 33.3% | 28.6% | 23.6% | 57.1% | 41.6% | 30% | 23.3% | 61.5% | 43.4% | 79.2% | 65.7% | 0.2% | 0.17% | viability, T/C [6]: 17.7%; viability, T/C [11]: 22.1%; viability, T/C [12]: 14.6%; viability, T/C [15]: 38.4%; viability, T/C [16]: 24.8%; viability, T/C [17]: 18.1%; viability, T/C [18]: 13.5%; viability, T/C [21]: 43.8%; viability, T/C [22]: 13.4%; viability, T/C [23]: 3.22%; viability, T/C [24]: 3.6%; viability, T/C [27]: 0.16%; viability, T/C [28]: 0.14%; viability, T/C [29]: 0.13%; viability, T/C [30]: 0.2%
2 | Cn1nccc1Nc1nccc(-c2cc3c(s2)C(C)(C)N(CCN2CCOCC2)C3=O)n1 + CNCc1ccccc1-c1csc(C(C)Nc2nc(C)nc3cc(OC)c(OC)cc23)c1 | 581 nM | 557 nM | 340 nM | 794 nM | < 31.6 nM | 83.6% | 68.6% | 59.6% | 44.1% | 31.7% | 66.2% | 65.1% | 54.2% | 46% | 66.2% | 66.1% | 73.9% | 71.7% | 0.21% | 0.18% | viability, T/C [6]: 32%; viability, T/C [11]: 28.3%; viability, T/C [12]: 26.8%; viability, T/C [15]: 49.7%; viability, T/C [16]: 35.6%; viability, T/C [17]: 29.1%; viability, T/C [18]: 26.3%; viability, T/C [21]: 53.3%; viability, T/C [22]: 44.7%; viability, T/C [23]: 36.6%; viability, T/C [24]: 1.09%; viability, T/C [27]: 0.76%; viability, T/C [28]: 0.16%; viability, T/C [29]: 1.91%; viability, T/C [30]: 0.18%
3 | CC(=O)OC12COC1CC(O)C1(C)C(=O)C(O)C3=C(C)C(OC(=O)C(O)C(NC(=O)OC(C)(C)C)c4ccccc4)CC(O)(C(OC(=O)c4ccccc4)C21)C3(C)C (stereo not given) + COc1cc2nc(C)nc(NC(C)c3cc(N)cc(C(F)(F)F)c3)c2cc1OC1CCOC1 | > 3160 nM | < 10 nM | > 3160 nM | < 10 nM | > 3160 nM | 52.6% | 53.9% | 57.9% | 72.3% | 58.7% | 40% | 52.4% | 45.4% | 51% | 69.2% | 69.7% | 46.9% | 56.3% | 58.1% | 53.8% | viability, T/C [31]: 55.8%; viability, T/C [32]: 48.6%; viability, T/C [11]: 47.6%; viability, T/C [33]: 54.9%; viability, T/C [15]: 70.5%; viability, T/C [16]: 78.8%; viability, T/C [17]: 50.3%; viability, T/C [34]: 50.5%; viability, T/C [21]: 48.9%; viability, T/C [22]: 57.1%; viability, T/C [23]: 59.1%; viability, T/C [35]: 62.7%; viability, T/C [27]: 54.6%; viability, T/C [28]: 64.4%; viability, T/C [29]: 62.2%
4 | CN(C)C/C=C/C(=O)Nc1cc2c(Nc3ccc(F)c(Cl)c3)ncnc2cc1O[C@H]1CCOC1 + COc1cc2nc(C)nc(NC(C)c3cc(N)cc(C(F)(F)F)c3)c2cc1OC1CCOC1 | 30 nM | 4.27 nM | 11.2 nM | < 0.316 nM | < 0.316 nM | 51.6% | 48.2% |  |  |  | 45.1% | 46.2% |  |  | 39.8% | 49.3% | 29.8% | 32.1% | 17.8% | 22.4% | viability, T/C (second compound 0.1 µM, first compound 0.000316 µM): 88.5%; viability, T/C (second compound 0.1 µM, first compound 0.001 µM): 68.1%; viability, T/C (second compound 0.1 µM, first compound 0.00316 µM): 56.5%; viability, T/C [31]: 51.2%; viability, T/C (second compound 0.316 µM, first compound 0.000316 µM): 69.5%; viability, T/C (second compound 0.316 µM, first compound 0.001 µM): 60.9%; viability, T/C (second compound 0.316 µM, first compound 0.00316 µM): 54.4%; viability, T/C [32]: 40.8%; viability, T/C (second compound 1 µM, first compound 0.000316 µM): 85.9%; viability, T/C (second compound 1 µM, first compound 0.001 µM): 66.4%; viability, T/C (second compound 1 µM, first compound 0.00316 µM): 57.5%; viability, T/C [33]: 53.9%; viability, T/C (second compound 3.16 µM, first compound 0.000316 µM): 45.9%; viability, T/C (second compound 3.16 µM, first compound 0.001 µM): 43.8%; viability, T/C (second compound 3.16 µM, first compound 0.00316 µM): 36.4%; viability, T/C [34]: 32.1%; viability, T/C (second compound 10 µM, first compound 0.000316 µM): 39.6%; viability, T/C (second compound 10 µM, first compound 0.001 µM): 35.5%; viability, T/C (second compound 10 µM, first compound 0.00316 µM): 27.8%; viability, T/C [35]: 24.4%
5 | O=C(c1cc(Cc2n[nH]c(=O)c3ccccc23)ccc1F)N1CCN(C(=O)C2CC2)CC1 + COc1cc2nc(C)nc(NC(C)c3cc(N)cc(C(F)(F)F)c3)c2cc1OC1CCOC1 | > 10000 nM | > 10000 nM | > 10000 nM | > 10000 nM | > 10000 nM | 84.3% | 108% | 81.8% | 109% | 96.8% | 68.5% | 58.5% | 67.8% | 64% | 102% | 117% | 69.3% | 68.7% | 78.7% | 63.2% | viability, T/C [6]: 70.3%; viability, T/C [11]: 57.4%; viability, T/C [12]: 70.5%; viability, T/C [15]: 98%; viability, T/C [16]: 94.1%; viability, T/C [17]: 95%; viability, T/C [18]: 81.5%; viability, T/C [21]: 72.8%; viability, T/C [22]: 63%; viability, T/C [23]: 68.8%; viability, T/C [24]: 61.5%; viability, T/C [27]: 68%; viability, T/C [28]: 63.2%; viability, T/C [29]: 53.1%; viability, T/C [30]: 56.1%
